This experiment relates to THP-1 cell adhesion to HepG2 cells. Kind of experiment: CX3CR1-dependent THP-1 cell adhesion to HepG2 cells. As to conditions: THP-1 pre-treated with compound 30 min, FIG. 1. Format: cell-based. As for the experimental part:
CX3CR1 Agonists Prevent CX3CR1-Dependent THP-1 Cell Adhesion to HepG2 Cells
This assay measures the adhesion of THP-1 monocytes, which constitutively express CX3CR1, to HepG2 cells, a fractalkine-expressing cell line. Briefly, HepG2 cells were seeded at 80,000 cells per well in 96-well plates and allowed to form a monolayer overnight. The following day, THP-1 cells (at 2×10^6 cells/mL) were fluorescently labeled with Calcein-AM (5 μM) and pre-treated with compound at the doses indicated for 30 min. Labeled THP-1 cells were subsequently seeded (50,000/well) into the HepG2-containing plates and incubated for 30 min before imaging for Calcein-AM signal on the INCell Analyzer Imaging System. After four washes, the plates were imaged once again to calculate THP-1 cell adhesion, as measured by the percentage of cells remaining on the plates. […] These agonists behave as functional antagonists in the cell adhesion assay by blocking the interaction between CX3CR1 and fractalkine.

This note sets out measurements from US12258337B2, “Bicyclic CX3CR1 receptor agonists” (Board of Regents, The University of Texas System, priority 2019, dated 2025).

Take `CC(C)(CNC(=O)c1cc2c(s1)CCCCCC2)CN1CCCC1` [Example 1, N-(2,2-dimethyl-3-pyrrolidin-1-ylpropyl)-4,5,6,7,8,9-hexahydrocycloocta[b]thiophene-2-carboxamide]: the “THP-1 cell adhesion to HepG2 cells” value is “prevented THP-1 adhesion to HepG2 cells in a dose-dependent manner”.
As for `CN(C)CC1(CNC(=O)c2cc3c(s2)CCCCCC3)CCCC1` [Example 2, N-[[1-[(dimethylamino)methyl]cyclopentyl]methyl]-4,5,6,7,8,9-hexahydrocycloocta[b]thiophene-2-carboxamide], the entry is “prevented THP-1 adhesion to HepG2 cells in a dose-dependent manner”.
